Numbered stars: 1 amine (or outer) side, 2 acyl side, 3 side chain; on linkers, the order of the positions; unused ones are H or OH. Bridge positions count the residues as written; N and C are the ends. Square brackets hold non-standard residues; d marks the D form. Peptide text beside a SMILES is read from it. * marks the point of attachment. pTerphenylCO(4''-OnC5H11) = CCCCCOc1ccc(-c2ccc(-c3ccc(C(=O)*)cc3)cc2)cc1; Orn(4R-OH,5R-OH) = O=C([C@H](C[C@@H](O)[C@@H](O)N[*:3])N[*:1])[*:2]; hTyr(3S-OH,4S-OH) = N[C@H](C(=O)O)[C@H](O)[C@@H](O)c1ccc(O)cc1; Pro(3S-OH,4S-Me) = C[C@H]1CN[C@H](C(=O)O)[C@H]1O; Hyp = O=C(O)[C@@H]1C[C@@H](O)CN1
Key:
Type in all cases: functional
Aspergillus flavus [1] = assay: Ratio of MIC50 for Aspergillus flavus isolate 0001-033 in presence of 50% human serum to MIC50 for Aspergillus flavus isolate 0001-033 in presence of RPMI 1640 medium
Aspergillus flavus [2] = assay: Antifungal activity against Aspergillus flavus isolate 0001-061 after 24 hrs by CLSI M38-A broth microdilution method in presence of RPMI 1640 medium; conditions: isolate 0001-061, 24 h
Aspergillus flavus [3] = assay: Antifungal activity against Aspergillus flavus isolate 0001-061 after 24 hrs by CLSI M38-A broth microdilution method in presence of 50% human serum; conditions: isolate 0001-061, 24 h
Nakaseomyces glabratus [4] = assay: Ratio of MIC50 for Candida glabrata isolate 0049-038 in presence of 50% human serum to MIC50 for Candida glabrata isolate 0049-038 in presence of RPMI 1640 medium
Pichia kudriavzevii [5] = assay: Antifungal activity against Candida krusei isolate 0001-058 after 24 hrs by CLSI M27-A2 broth microdilution method in presence of RPMI 1640 medium; conditions: isolate 0001-058, 24 h
Pichia kudriavzevii [6] = assay: Antifungal activity against Candida krusei isolate 0001-058 after 24 hrs by CLSI M27-A2 broth microdilution method in presence of 50% human serum; conditions: isolate 0001-058, 24 h
Pichia kudriavzevii [7] = assay: Ratio of MIC50 for Candida krusei isolate 0001-058 in presence of 50% human serum to MIC50 for Candida krusei isolate 0001-058 in presence of RPMI 1640 medium
Pichia kudriavzevii [8] = assay: Antifungal activity against Candida krusei isolate 0013-054 after 24 hrs by CLSI M27-A2 broth microdilution method in presence of RPMI 1640 medium; conditions: isolate 0013-054, 24 h
Pichia kudriavzevii [9] = assay: Antifungal activity against Candida krusei ATCC 6258 after 24 hrs by CLSI M27-A2 broth microdilution method in presence of 50% human serum; conditions: ATCC 6258, 24 h
Pichia kudriavzevii [10] = assay: Ratio of MIC50 for Candida krusei ATCC 6258 in presence of 50% human serum to MIC50 for Candida krusei ATCC 6258 in presence of RPMI 1640 medium
Candida albicans [11] = assay: Antifungal activity against Candida albicans isolate 0012-025 after 24 hrs by CLSI M27-A2 broth microdilution method in presence of RPMI 1640 medium; conditions: isolate 0012-025, 24 h
Candida albicans [12] = assay: Antifungal activity against Candida albicans isolate 0012-025 after 24 hrs by CLSI M27-A2 broth microdilution method in presence of 50% human serum; conditions: isolate 0012-025, 24 h
Candida albicans [13] = assay: Antifungal activity against Candida albicans isolate 0021-076 after 24 hrs by CLSI M27-A2 broth microdilution method in presence of RPMI 1640 medium; conditions: isolate 0021-076, 24 h
Candida albicans [14] = assay: Antifungal activity against Candida albicans isolate 0021-076 after 24 hrs by CLSI M27-A2 broth microdilution method in presence of 50% human serum; conditions: isolate 0021-076, 24 h
Clavispora lusitaniae [15] = assay: Ratio of MIC50 for Candida lusitaniae isolate 0013-002 in presence of 50% human serum to MIC50 for Candida lusitaniae isolate 0013-002 in presence of RPMI 1640 medium
Clavispora lusitaniae [16] = assay: Antifungal activity against Candida lusitaniae isolate 0015-049 after 24 hrs by CLSI M27-A2 broth microdilution method in presence of RPMI 1640 medium; conditions: isolate 0015-049, 24 h
Clavispora lusitaniae [17] = assay: Ratio of MIC50 for Candida lusitaniae isolate 0015-049 in presence of 50% human serum to MIC50 for Candida lusitaniae isolate 0015-049 in presence of RPMI 1640 medium
Candida parapsilosis [18] = assay: Ratio of MIC50 for Candida parapsilosis isolate 0014-074 in presence of 50% human serum to MIC50 for Candida parapsilosis isolate 0014-074 in presence of RPMI 1640 medium
Candida parapsilosis [19] = assay: Ratio of MIC50 for Candida parapsilosis isolate 0011-013 in presence of 50% human serum to MIC50 for Candida parapsilosis isolate 0011-013 in presence of RPMI 1640 medium
Candida parapsilosis [20] = assay: Antifungal activity against Candida parapsilosis isolate 0036-030 after 24 hrs by CLSI M27-A2 broth microdilution method in presence of RPMI 1640 medium; conditions: Lodderomyces parapsilosis, isolate 0036-030, 24 h
Candida parapsilosis [21] = assay: Ratio of MIC50 for Candida parapsilosis isolate 0036-030 in presence of 50% human serum to MIC50 for Candida parapsilosis isolate 0036-030 in presence of RPMI 1640 medium
Candida parapsilosis [22] = assay: Antifungal activity against Candida parapsilosis ATCC 22019 after 24 hrs by CLSI M27-A2 broth microdilution method in presence of RPMI 1640 medium; conditions: Lodderomyces parapsilosis, ATCC 22019, 24 h
Nakaseomyces glabratus [23] = assay: Antifungal activity against Candida glabrata isolate 0022-012 after 24 hrs by CLSI M27-A2 broth microdilution method in presence of 50% human serum; conditions: isolate 0022-012, 24 h
Candida tropicalis [24] = assay: Antifungal activity against Candida tropicalis isolate 0022-021 after 24 hrs by CLSI M27-A2 broth microdilution method in presence of RPMI 1640 medium; conditions: isolate 0022-021, 24 h
Candida tropicalis [25] = assay: Antifungal activity against Candida tropicalis isolate 0050-028 after 24 hrs by CLSI M27-A2 broth microdilution method in presence of RPMI 1640 medium; conditions: isolate 0050-028, 24 h
Candida tropicalis [26] = assay: Antifungal activity against Candida tropicalis isolate 0050-028 after 24 hrs by CLSI M27-A2 broth microdilution method in presence of 50% human serum; conditions: isolate 0050-028, 24 h
Aspergillus terreus [27] = assay: Antifungal activity against Aspergillus terreus isolate 0031-087 after 48 hrs by CLSI M38-A broth microdilution method in presence of RPMI 1640 medium; conditions: isolate 0031-087, 48 h
Aspergillus terreus [28] = assay: Antifungal activity against Aspergillus terreus isolate 0031-087 after 48 hrs by CLSI M38-A broth microdilution method in presence of 50% human serum; conditions: isolate 0031-087, 48 h
Aspergillus fumigatus [29] = assay: Antifungal activity against Aspergillus fumigatus isolate 0002-0016 after 24 hrs by CLSI M38-A broth microdilution method in presence of 50% human serum; conditions: isolate 0002-0016, 24 h
Aspergillus fumigatus [30] = assay: Antifungal activity against Aspergillus fumigatus isolate 0020-018 after 24 hrs by CLSI M38-A broth microdilution method in presence of 50% human serum; conditions: isolate 0020-018, 24 h
Aspergillus fumigatus [31] = assay: Ratio of MIC50 for Aspergillus fumigatus isolate 0002-020 in presence of 50% human serum to MIC50 for Aspergillus fumigatus isolate 0002-020 in presence of RPMI 1640 medium
Aspergillus fumigatus [32] = assay: Antifungal activity against Aspergillus fumigatus isolate 0002-021 after 24 hrs by CLSI M38-A broth microdilution method in presence of RPMI 1640 medium; conditions: isolate 0002-021, 24 h
Aspergillus fumigatus [33] = assay: Antifungal activity against Aspergillus fumigatus isolate 0002-021 after 24 hrs by CLSI M38-A broth microdilution method in presence of 50% human serum; conditions: isolate 0002-021, 24 h

## CCCCCOc1ccc(-c2ccc(-c3ccc(C(=O)N[C@H]4C[C@@H](O)[C@@H](O)NC(=O)[C@@H]5[C@@H](O)[C@@H](C)CN5C(=O)[C@H]([C@@H](C)O)NC(=O)[C@H]([C@H](O)[C@@H](O)c5ccc(O)cc5)NC(=O)[C@@H]5C[C@@H](O)CN5C(=O)[C@H]([C@@H](C)O)NC4=O)cc3)cc2)cc1 [ANIDULAFUNGIN] ({pTerphenylCO(4''-OnC5H11)}-[Orn(4R-OH,5R-OH)]T[Hyp][hTyr(3S-OH,4S-OH)]T[Pro(3S-OH,4S-Me)]; lactam 1-C)
Aspergillus flavus [1]
  Ratio: 32
Aspergillus flavus [2]
  MIC50: 4 µg/mL
Aspergillus flavus [3]
  MIC50: 128 µg/mL
Nakaseomyces glabratus [4]
  Ratio: 32
Pichia kudriavzevii [5]
  MIC50: 0.0313 µg/mL
Pichia kudriavzevii [6]
  MIC50: 1 µg/mL
Pichia kudriavzevii [7]
  Ratio: 32
Pichia kudriavzevii [8]
  MIC50: 0.125 µg/mL
Pichia kudriavzevii [9]
  MIC50: 2 µg/mL
Pichia kudriavzevii [10]
  Ratio: 16
Candida albicans [11]
  MIC50: 0.0156 µg/mL
Candida albicans [12]
  MIC50: 0.25 µg/mL
Candida albicans [13]
  MIC50: 0.5 µg/mL
Candida albicans [14]
  MIC50: 128 µg/mL
Clavispora lusitaniae [15]
  Ratio: 512
Clavispora lusitaniae [16]
  MIC50: 0.125 µg/mL
Clavispora lusitaniae [17]
  Ratio: 8
Candida parapsilosis [18]
  Ratio: 64
Candida parapsilosis [19]
  Ratio: 64
Candida parapsilosis [20]
  MIC50: 1 µg/mL
Candida parapsilosis [21]
  Ratio: 128
Candida parapsilosis [22]
  MIC50: 0.5 µg/mL
Nakaseomyces glabratus [23]
  MIC50: 1 µg/mL
Candida tropicalis [24]
  MIC50: 0.0156 µg/mL
Candida tropicalis [25]
  MIC50: 1 µg/mL
Candida tropicalis [26]
  MIC50: 128 µg/mL
Aspergillus terreus [27]
  MIC50: 0.0156 µg/mL
Aspergillus terreus [28]
  MIC50: 0.25 µg/mL
Aspergillus fumigatus [29]
  MIC50: 128 µg/mL
Aspergillus fumigatus [30]
  MIC50: 128 µg/mL
Aspergillus fumigatus [31]
  Ratio: 64
Aspergillus fumigatus [32]
  MIC50: 0.002 µg/mL
Aspergillus fumigatus [33]
  MIC50: 128 µg/mL

— ChEMBL document CHEMBL1137656, “Effects of serum on in vitro susceptibility testing of echinocandins” (Antimicrob Agents Chemother, 2007)
